# According to the NIST ThermoML archive (doi:10.1021/je500696p):
# ± gives the expanded uncertainty stated by the source.
# Assay: xn = mol fraction of the nth substance listed
# Conditions: 100 kPa, Liquid, Vibrating tube method
smiles,measurement,setting,value
CCCC[N+](C)(C)C.O=S(=O)([N-]S(=O)(=O)C(F)(F)F)C(F)(F)F [butyltrimethylammonium bis(trifluoromethylsulfonyl)imide] + CCO,mass density,"293.15 K, x2 = 0",1397.1 ± 5.6 kg/m3
same,mass density,"293.15 K, x2 = 0.1284",1379.5 ± 5.5 kg/m3
same,mass density,"293.15 K, x2 = 0.2585",1357.1 ± 5.4 kg/m3
same,mass density,"293.15 K, x2 = 0.3814",1329.7 ± 5.3 kg/m3
same,mass density,"293.15 K, x2 = 0.5031",1293.9 ± 5.2 kg/m3
same,mass density,"293.15 K, x2 = 0.6487",1232.1 ± 5 kg/m3
same,mass density,"293.15 K, x2 = 0.7823",1142 ± 4.6 kg/m3
same,mass density,"293.15 K, x2 = 0.8561",1066.3 ± 4.3 kg/m3
same,mass density,"293.15 K, x2 = 0.8763",1040.6 ± 4.2 kg/m3
same,mass density,"293.15 K, x2 = 0.9039",1000.1 ± 4 kg/m3
same,mass density,"293.15 K, x2 = 0.95",916.4 ± 3.7 kg/m3
same,mass density,"293.15 K, x2 = 0.9745",860.2 ± 3.4 kg/m3
same,mass density,"295.15 K, x2 = 0",1395.3 ± 5.6 kg/m3
same,mass density,"295.15 K, x2 = 0.1284",1377.7 ± 5.5 kg/m3
same,mass density,"295.15 K, x2 = 0.2585",1355.3 ± 5.4 kg/m3
same,mass density,"295.15 K, x2 = 0.3814",1327.8 ± 5.3 kg/m3
same,mass density,"295.15 K, x2 = 0.5031",1292 ± 5.2 kg/m3
same,mass density,"295.15 K, x2 = 0.6487",1230.3 ± 4.9 kg/m3
same,mass density,"295.15 K, x2 = 0.7823",1140.1 ± 4.6 kg/m3
same,mass density,"295.15 K, x2 = 0.8561",1064.5 ± 4.3 kg/m3
same,mass density,"295.15 K, x2 = 0.8763",1038.8 ± 4.2 kg/m3
same,mass density,"295.15 K, x2 = 0.9039",998.3 ± 4 kg/m3
same,mass density,"295.15 K, x2 = 0.95",914.6 ± 3.7 kg/m3
same,mass density,"295.15 K, x2 = 0.9745",858.4 ± 3.4 kg/m3
same,mass density,"298.15 K, x2 = 0",1392.7 ± 5.6 kg/m3
same,mass density,"298.15 K, x2 = 0.1284",1375.1 ± 5.5 kg/m3
same,mass density,"298.15 K, x2 = 0.2585",1352.6 ± 5.4 kg/m3
same,mass density,"298.15 K, x2 = 0.3814",1325.1 ± 5.3 kg/m3
same,mass density,"298.15 K, x2 = 0.5031",1289.3 ± 5.2 kg/m3
same,mass density,"298.15 K, x2 = 0.6487",1227.5 ± 4.9 kg/m3
same,mass density,"298.15 K, x2 = 0.7823",1137.3 ± 4.6 kg/m3
same,mass density,"298.15 K, x2 = 0.8561",1061.7 ± 4.3 kg/m3
same,mass density,"298.15 K, x2 = 0.8763",1036 ± 4.2 kg/m3
same,mass density,"298.15 K, x2 = 0.9039",995.6 ± 4 kg/m3
same,mass density,"298.15 K, x2 = 0.95",911.9 ± 3.7 kg/m3
same,mass density,"298.15 K, x2 = 0.9745",855.8 ± 3.4 kg/m3
same,mass density,"303.15 K, x2 = 0",1388.3 ± 5.6 kg/m3
same,mass density,"303.15 K, x2 = 0.1284",1370.6 ± 5.5 kg/m3
same,mass density,"303.15 K, x2 = 0.2585",1348.1 ± 5.4 kg/m3
same,mass density,"303.15 K, x2 = 0.3814",1320.6 ± 5.3 kg/m3
same,mass density,"303.15 K, x2 = 0.5031",1284.7 ± 5.2 kg/m3
same,mass density,"303.15 K, x2 = 0.6487",1222.8 ± 4.9 kg/m3
same,mass density,"303.15 K, x2 = 0.7823",1132.7 ± 4.5 kg/m3
same,mass density,"303.15 K, x2 = 0.8561",1057.1 ± 4.2 kg/m3
same,mass density,"303.15 K, x2 = 0.8763",1031.4 ± 4.1 kg/m3
same,mass density,"303.15 K, x2 = 0.9039",991 ± 4 kg/m3
same,mass density,"303.15 K, x2 = 0.95",907.4 ± 3.6 kg/m3
same,mass density,"303.15 K, x2 = 0.9745",851.4 ± 3.4 kg/m3
same,mass density,"308.15 K, x2 = 0",1384 ± 5.6 kg/m3
same,mass density,"308.15 K, x2 = 0.1284",1366.2 ± 5.5 kg/m3
same,mass density,"308.15 K, x2 = 0.2585",1343.7 ± 5.4 kg/m3
same,mass density,"308.15 K, x2 = 0.3814",1316.1 ± 5.3 kg/m3
same,mass density,"308.15 K, x2 = 0.5031",1280.1 ± 5.1 kg/m3
same,mass density,"308.15 K, x2 = 0.6487",1218.2 ± 4.9 kg/m3
same,mass density,"308.15 K, x2 = 0.7823",1128 ± 4.5 kg/m3
same,mass density,"308.15 K, x2 = 0.8561",1052.4 ± 4.2 kg/m3
same,mass density,"308.15 K, x2 = 0.8763",1026.8 ± 4.1 kg/m3
same,mass density,"308.15 K, x2 = 0.9039",986.4 ± 4 kg/m3
same,mass density,"308.15 K, x2 = 0.95",902.9 ± 3.6 kg/m3
same,mass density,"308.15 K, x2 = 0.9745",846.9 ± 3.4 kg/m3
same,mass density,"313.15 K, x2 = 0",1379.6 ± 5.5 kg/m3
same,mass density,"313.15 K, x2 = 0.1284",1361.8 ± 5.5 kg/m3
same,mass density,"313.15 K, x2 = 0.2585",1339.2 ± 5.4 kg/m3
same,mass density,"313.15 K, x2 = 0.3814",1311.6 ± 5.3 kg/m3
same,mass density,"313.15 K, x2 = 0.5031",1275.6 ± 5.1 kg/m3
same,mass density,"313.15 K, x2 = 0.6487",1213.6 ± 4.9 kg/m3
same,mass density,"313.15 K, x2 = 0.7823",1123.3 ± 4.5 kg/m3
same,mass density,"313.15 K, x2 = 0.8561",1047.8 ± 4.2 kg/m3
same,mass density,"313.15 K, x2 = 0.8763",1022.1 ± 4.1 kg/m3
same,mass density,"313.15 K, x2 = 0.9039",981.8 ± 3.9 kg/m3
same,mass density,"313.15 K, x2 = 0.95",898.4 ± 3.6 kg/m3
same,mass density,"313.15 K, x2 = 0.9745",842.5 ± 3.4 kg/m3
same,mass density,"318.15 K, x2 = 0",1375.2 ± 5.5 kg/m3
same,mass density,"318.15 K, x2 = 0.1284",1357.4 ± 5.4 kg/m3
same,mass density,"318.15 K, x2 = 0.2585",1334.8 ± 5.4 kg/m3
same,mass density,"318.15 K, x2 = 0.3814",1307.1 ± 5.2 kg/m3
